# Laboratory results taken from patent US10188651B2, “Methods of treating sleep disorders” (Melior Pharmaceuticals II, LLC, priority 2013, dated 2019).
# Experiments:
# [1] = system: 6-OHDA unilaterally lesioned Sprague-Dawley rats; assay: Abnormal involuntary movements (AIMs) test, Examples 1 and 2; conditions: for effect of test drug on L-dopa-induced AIMs (dyskinesia): L-dopa day 1 (50 mg/kg), L-dopa and test drug day 2; for abnormal involuntary movements (AIMs) score compared to vehicle-treated rats: once daily, scored 60 min after injection, L-dopa 6 mg/kg for 5 days, Sydnocarb 10 and 30 mg/kg, no combination
# Protocol: Female, Sprague-Dawley rats (Charles River Laboratories) at 7 to 8 weeks of age were used. Animals were assigned randomly to treatment groups. The diet consisted of standard rodent chow and water ad libitum.
# 6-OHDA was formulated at 5 mg/ml solution in 0.03% ascorbic acid in sterile 0.9% NaCl. Three μL of 6-OHDA was injected into the median forebrain bundle at the following stereotaxic coordinates from bregma: Anteroposterior (A/P) −4.0 mm; mediolateral (M/L) −1.3 mm; ventrodorsal (V/D) −8.0 mm with reference to the top of the skull.
# After lesion, rats were allowed to recover for two weeks and then tested for amphetamine-induced rotational activity. Animals were treated with 25 mg/kg amphetamine in saline and recorded in an open-field chamber for 90 minutes. Only rats rotating greater than 4 times per minute were used in efficacy studies. After an additional one week, rats were treated with L-dopa (Isotec IY0630) at various times and measured for the appearance of abnormal involuntary movements (AIMs).
# The AIMs test was carried out as follows: 1) weigh rat and inject with L-dopa/benserazide (10 ml/kg, ip); may be a single injection per day over multiple days; administration of a test compound or reference compound may also be included; 2) place rat in empty cage, start video recording; 3) AIMs were assessed in four areas: a) onset of symptoms-latency (seconds) to first visual AIM as defined below; b) 30 minute AIM score; c) 60 minute AIM score; and d) number of left rotations from 30-60 minutes; 4) AIMs were scored and recorded on a scale from 0 to 4: i) absent; ii) slight left forelimb dystonia with grooming; iii) excessive left forelimb dystonia with grooming; iv) left forelimb dystonia with left circling; and v) continuous left circling with or without grooming; 5) record any unusual clinical signs; and 6) after 60 minutes, stop recording, place rat back into home cage.
# Sixty minutes after injection, abnormal involuntary movements (AIMs) were scored.
# Rats receiving a unilateral 6-OHDA lesion as described above were treated with L-dopa (day 1, 50 mg/kg) and then L-dopa and test drug (day 2, Sydnocarb or Tesofensine).
# [2] = system: C57Bl/6 mice treated with MPTP; assay: Open Field Activity assay after MPTP; format: in vivo, mouse; conditions: compound 30 min prior to MPTP (3x20 mg/kg) and daily for 4 days; measured day 5, 30 min open field
# Protocol: An Open Field Activity assay was performed in which locomotor and sensorimotor parameters were evaluated in an automated open-field apparatus. 1-methyl-4-phenyl-1,2,3,6-tetrahydropyridine (MPTP) injections (3×20 mg/kg) were performed in C57Bl/6 mice at two-hour intervals (final dose of MPTP=60 mg/kg). Mice were treated with the compound 30 minutes prior to MPTP and daily for 4 days. Locomotor activity was monitored on day 5, thirty minutes after administration of test compound. Locomotor activity was measured in an automated open-field (MedAssociates) for 30 minutes. The following parameters were measured: 1) horizontal distance traveled, 2) number of rearing events and 3) stereotypic behavior.
# [3] = system: 6-OHDA-lesioned rats; assay: Forelimb adjusting step (FAS) test; format: in vivo, rat
# Protocol: In 6-OHDA-lesioned rats, L-dopa administration also elicits a therapeutically beneficial anti-akinetic activity that can be measured by the forelimb adjusting step (FAS) test. To determine the effect of Sydnocarb on L-dopa efficacy on this motor function, 6-OHDA-lesioned rats were treated with L-dopa in combination with Sydnocarb at 10 mg/kg and assessed by the FAS test (see, FIG. 3).
# For three consecutive days, the experimenter that performed the study handled the rats so they were familiar with the experimenter's grip: the rat was held with one hand fixing the hindlimbs and slightly raising the hind part above the surface; the other hand fixed the forelimb not to be monitored; the forelimb to be monitored was touching the table; the animal was moved slowly sideways (approx. 5 sec for 90 cm), first in the forehand and then in the backhand; and these steps were repeated for the other forelimb. Forehand is defined as compensating movement toward the body and backhand is defined as compensating movement away from the body.
# Each stepping test consisted of six trials for each forepaw, alternating between directions both forehand and backhand as follows: the rat was held in the same position as described above with one paw touching the table; the rat was moved slowly sideways (approx 5 sec for 90 cm), first in the forehand and then in the backhand; the number of adjusting steps for both paws in the forehand and back hand directions of movement were counted and recorded; and the sequence of testing was left paw forehand and backhand adjusting stepping, followed by right paw backhand and forehand directions. The rat was returned to its home cage and the sequence repeated with the second rat in the cage. Five more trials were performed for each rat, placing the rats back in their home cage between trials.
# This portion of the experiment was run 3-4 weeks post 6-OHDA lesion, and at least 1 week post rotations testing as follows: prior to the start of dosing, rats were trained and baselines performed as above; preparation of L-dopa with benserazide (concentrations are for i.p. injection, 10 ml/kg): a) L-dopa dissolved in saline at 1.2 mg/ml; and b) benserazide dissolved in saline at 0.4 mg/ml; preparation of sydnocarb 10 mg/kg (concentrations are for i.p. injection, 10 ml/kg): a) sydnocarb dissolved in 0.5% methylcellulose, 0.2% tween 80 in dH2O at 1 mg/ml.
# Rats were weighed and injected with L-dopa/benserazide (12 mg/kg/4 mg/kg). FAS were run approximately 60 minutes post L-dopa/benserazide dose. Rats were returned to home cage.
# Rats were weighed and injected with sydnocarb 10 mg/kg or vehicle (0.5% methylcellulose, 0.2% tween 80 in dH2O), 30 minutes prior to L-dopa/benserazide dosing. The rest of the study was continued as described in Day 1.
# Data were represented as percent by summing steps (forward and backhand) of the lesioned forelimb and dividing by the sum of the steps of the intact forelimb and multiplying by 100, giving a measure of the degree of forepaw disability. A similar calculation was obtained for percent of lesioned forelimb, giving a measure of gain of function.
# Sprague-Dawley rats (6/group) were injected unilaterally with 6-OHDA as described above. […] Forepaw adjusting steps were scored and graphed as a percent of the intact (unaffected) forelimb. […] (**p<0.01, p=0.058, One-way ANOVA with post-hoc t-test compared to veh+veh). […] Moreover, Sydnocarb may allow the use of lower therapeutic doses of L-dopa, thereby reducing potential L-dopa-induced side effects.
# L-dopa was administered at a dose level of 6 mg/kg (ip) along with benserazide (ip; 2 mg/kg). […] For these 6 mg/kg L-dopa studies, rats were combined from two previous L-dopa/Sydnocarb studies and allowed a 3-week wash out period.
# After an additional one week, baseline FAS was measured and rats were treated with L-dopa at 6 mg/kg and Sydnocarb at 3 and 10 mg/kg (ip) for 12 days. […]
# [4] = system: unilaterally lesioned 6-OHDA rats; assay: Axial, limb and orolingual (ALO) AIMs rating, chronic dosing
# Protocol: L-dopa was administered at a dose level of 12 mg/kg (ip) along with benserazide (ip; 4 mg/kg). Sydnocarb (10 or 30 mg/kg, ip), amantadine (40 mg/kg ip), or vehicle was administered 30 minutes prior to L-dopa/benserazide. As a “priming” step, L-dopa was administered daily by itself for 1 week after the amphetamine rotation wash-out period. Subsequently, Sydnocarb, along with L-dopa, was dosed daily for an additional 12 days.
# After treatment, rats were placed in a confined chamber and monitored for axial, limb, and orolingual AIMs every 20-30 minutes for 2 hours as follows:
# For the first minute, AIMs were assessed in three areas: • a. Axial: dystonic posturing of the neck and torso in a twisted manner directed toward the side of the body contralateral to the lesion; • b. Forelimb: rapid, purposeless movements of the forelimb located on the side of the body contralateral to the lesion; and; • c. Orolingual: repetitive openings and closings of the jaw and tongue protrusions occurring at times when the rats are not chewing or knowing on food or other objects.
# AIMs were scored and recorded on a scale from 0 to 4: • 0=not present; • 1=present for less than 50% of the Observation period; • 2=present for 50% or more of the observation period; • 3=present for the entire observation period but interrupted by a loud stimulus (a tap on the cage); and • 4=present for the entire observation period and not interrupted by a loud stimulus.
# For the second minute, contralateral rotations, defined as complete 360 turns away from the lesioned side of the brain, were tallied.
# Ipsilateral rotations were counted as negative numbers and thus, deducted from the total contralateral rotations.
# For each AIMs subcategory, the scores were summed for the entire testing period.
# After an additional one week, baseline AIMs were measured and rats were treated with L-dopa at 12 mg/kg and Sydnocarb at 10 and 30 mg/kg (ip) for 12 days. On days 1, 8, 10, and 12, AIMs were scored every 20 minutes for 2 hours and graphed as a sum of axial, limb, and orolingual (ALO) abnormal movements (FIG. 6).
# Sydnocarb was administered at 3 mg/kg (ip) to 6-OHDA-lesioned rats once per day for 12 days.
# Sprague-Dawley rats (3/group) were injected unilaterally with 6-OHDA as described herein. Two weeks later, rats were tested for amphetamine-induced rotation activity to verify the dopaminergic lesion. After an additional six weeks, baseline AIMs were measured and rats were treated with Sydnocarb at 3 mg/kg (ip) for 12 days. No L-dopa was administered in this experiment. On days 5 and 12, AIMs were scored at 30, 90, and 150 minutes post-dose and graphed as a sum of axial, limb, and orolingual (ALO) abnormal movements (FIG. 11).
# [5] = system: C57Bl/6 mice; assay: Mouse electroencephalogram, time awake; format: in vivo; conditions: intraperitoneal injection 4 hours after lights-on
# Protocol: Electroencephalographic data were obtained in C57Bl/6 mice chronically implanted with electrodes to monitor brain and muscular activity. The percent time spent awake was evaluated following intraperitoneal injections of Sydnocarb 4 hours after lights-on, when mice are predominantly sleeping.
# [6] = system: extracellular DA; conditions: rat striatum and nucleus accumbens; cited from earlier work
# [7] = molecular target: DA transporter (DAT) (Homo sapiens, UniProt Q01959); conditions: Gruner et al. 2011; cited from earlier work
# Sequence of DA transporter (DAT) (Q01959 whole entry, species assumed): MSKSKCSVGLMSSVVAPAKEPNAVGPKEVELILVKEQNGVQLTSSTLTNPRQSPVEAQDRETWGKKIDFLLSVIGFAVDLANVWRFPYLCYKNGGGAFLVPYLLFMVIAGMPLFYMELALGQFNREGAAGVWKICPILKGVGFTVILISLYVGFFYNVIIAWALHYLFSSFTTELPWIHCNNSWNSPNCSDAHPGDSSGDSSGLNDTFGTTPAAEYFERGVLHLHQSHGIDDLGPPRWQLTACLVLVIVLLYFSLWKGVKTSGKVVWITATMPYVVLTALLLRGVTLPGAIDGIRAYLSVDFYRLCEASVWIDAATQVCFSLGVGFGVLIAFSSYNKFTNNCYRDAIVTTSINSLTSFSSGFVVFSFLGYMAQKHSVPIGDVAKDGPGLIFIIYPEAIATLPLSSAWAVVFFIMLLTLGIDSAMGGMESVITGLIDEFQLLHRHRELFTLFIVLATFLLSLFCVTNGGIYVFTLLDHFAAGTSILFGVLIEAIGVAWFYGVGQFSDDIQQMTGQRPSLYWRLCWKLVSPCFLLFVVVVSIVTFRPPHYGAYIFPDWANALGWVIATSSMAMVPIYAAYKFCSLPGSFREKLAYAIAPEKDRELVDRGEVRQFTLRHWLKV
# [8] = system: noradrenaline reuptake; conditions: rat synaptosomes; Erdö et al. 1981; cited from earlier work
# [9] = Gruner et al. 2011; cited from earlier work
# [10] = humans; cited from earlier work
# [11] = equimolar doses, cited from earlier work
# [12] = humans and animals; cited from earlier work
# [13] = L-dopa 12 mg/kg and Sydnocarb 10 mg/kg ip (day 2)
smiles,measurement,setting,value
CCOC[C@@H]1[C@@H](c2ccc(Cl)c(Cl)c2)C[C@@H]2CC[C@H]1N2C [Tesofensine],effect of test drug on L-dopa-induced AIMs (dyskinesia),[1],had no affect on AIMs
same,vertical activity (rearing events),[2],prevent decrease in vertical activity
N[C@@H](Cc1ccc(O)c(O)c1)C(=O)O [L-dopa],"FAS, % affected paw compared to baseline","[3]; L-dopa 6 mg/kg ip alone, 12 days",slight increase in adjusting steps compared to baseline
same,"forepaw adjusting steps, percent of the intact forelimb, compared to vehicle",[3]; L-dopa 12 mg/kg alone,slight increase in steps compared to vehicle
same,abnormal involuntary movements (AIMs) score compared to vehicle-treated rats,[1],significantly higher AIMs scores
same,abnormal involuntary movements (AIMs) caused by L-dopa,"[1]; two-day treatment with L-dopa, 50 mg/kg",increase in abnormal involuntary movements
same,sum of ALO AIMs compared to baseline,"[4]; L-dopa 12 mg/kg ip with benserazide, chronic dosing",increase in AIMS compared to baseline
"CC(Cc1ccccc1)[n+]1cc([N-]C(=O)Nc2ccccc2)on1 (stereo not drawn) [Sydnocarb, 3-(β-phenylisopropyl)-N-phenylcarbamoylsydnonimine]",percent time spent awake compared to vehicle controls,[5],dose-dependently increased time awake
same,extracellular DA increase compared with D-AMPH,[6],slower and more gradual increase in extracellular DA
same,DAT activity,[7],has DAT activity
same,noradrenaline reuptake,[8],attenuates noradrenaline reuptake
same,FAS adjusting steps compared to vehicle,"[3]; L-dopa 6 mg/kg and Sydnocarb 3 mg/kg ip for 12 days, days 5 and 12",increase in adjusting steps compared to vehicle
same,FAS adjusting steps compared to vehicle (L-dopa alone),"[3]; L-dopa 6 mg/kg and Sydnocarb 10 mg/kg po for 12 days, day 12, 60 min post-dose","slight increase, and importantly no decrease, in adjusting steps"
same,forepaw adjusting steps as percent of the intact forelimb,[3]; [13],~100%
same,"forepaw adjusting steps, percent of the intact forelimb, compared to vehicle",[3]; [13],significant increase
same,adjusting step scores compared to L-dopa alone,[3]; Sydnocarb 10 mg/kg with L-dopa,increased scores compared to L-dopa alone
same,rebound hypersomnolence,[9],lacks the rebound hypersomnolence
same,effect of test drug on L-dopa-induced AIMs (dyskinesia),[1],ameliorates L-dopa-induced dyskinesia
same,reduction of L-dopa-induced AIMs,"[1]; Sydnocarb administered 30 min after L-dopa, seen 30 and 60 minutes after L-dopa administration",approximately 40%
same,abnormal involuntary movements (AIMs) score compared to vehicle-treated rats,[1],did not cause significant AIMs
same,sum of ALO AIMs compared to vehicle,"[4]; L-dopa 12 mg/kg and Sydnocarb 10 and 30 mg/kg ip for 12 days, days 1, 8, 10, 12",decrease in AIMs compared to vehicle
same,sum of ALO AIMs compared to vehicle,"[4]; L-dopa 12 mg/kg and Sydnocarb 10 and 30 mg/kg po for 12 days, days 5 and 12",decrease in AIMs compared to vehicle
same,AIMs scores relative to L-dopa treatment,"[4]; Sydnocarb 3 mg/kg ip for 12 days, no L-dopa",approximately 20 times lower
same,"sum of ALO AIMs, Sydnocarb alone","[4]; Sydnocarb 3 mg/kg ip for 12 days, no L-dopa, days 5 and 12",nominal AIMs
same,toxic episodes and abuse potential,[10],neither significant toxic episodes nor abuse potential have been reported
same,markers of neurotoxicity relative to D-AMPH,"[11]; DA depletion, reactive oxygen species, lipid peroxidation",smaller changes in the markers of neurotoxicity
same,hyperlocomotion and stereotypy relative to D-AMPH,[11],less hyperlocomotion and stereotypy
same,vertical activity (rearing events),[2],prevent decrease in vertical activity
same,metabolite formed,[12],metabolized to D-amphetamine
